The text below walks through data of patent EP1408948B1, “THYROID THERAPEUTIC AGENT COMPRISING PARTIAL GLYCERIDES AND DEXTRINE” (BERLIN-CHEMIE Aktiengesellschaft, priority 2001, dated 2003).

For series [1] the following is noted: oral, steady state after 6 weeks of medication, patients on long-term medication; cited from earlier work.
The nature of series [2]: Bioavailability studies of levothyroxine sodium tablets of different strengths (pharmacokinetic parameters, dose linearity). To be noted: tablets of 50, 100, 150 and 200 µg made from one base formulation, oral. Type of series: in vivo. The protocol: Die ermittelten pharmakokinetischen Parameter der in vivo geprüften 50, 100, 150 und 200 µg Levothyroxin-Natrium enthaltenden Tabletten sind in Tabelle 1 aufgeführt.

A short description of series [3]: In vitro release of Levothyroxin-Natrium from tablets, paddle apparatus. To be noted: tablets of 50, 100, 150, 200 µg, 100 rpm, 500 ml phosphate buffer pH 7,4, data only in Fig. 1-4. The series is classed as physicochemical. An excerpt:
Die folgenden in vitro Untersuchungen der erfindungsgemäß hergestellten Tabletten belegen, dass der Wirkstoff Levothyroxin-Natrium aus den Tabletten der unterschiedlichen Dosierungen in gleicher Geschwindigkeit und […] Ausmaß freigesetzt und somit dem Körper zur Verfügung gestellt werden kann. Die Untersuchungen zur Freisetzung wurden mit den Tabletten gemäß den Beispielen 2 und 3 durchgeführt. In den Figuren 1 bis 4 ist die jeweilige Freisetzung dargestellt. An […] % angegeben, an […] Zeit aufgetragen. Die Balken geben den Vertrauensbereich des […] von Levothyroxin-Natrium aus Tabletten (50 μg), Tablettenmasse 52 mg, Paddle-Apparatur, 100 rpm, […]: 500 ml Phosphatpuffer pH 7,4; • Fig. 2: Freisetzung von Levothyroxin-Natrium aus Tabletten (100 μg), Tablettenmasse 104 mg, Paddle-Apparatur, 100 rpm, […]: 500 ml Phosphatpuffer pH 7, 4; • Fig. 3: Freisetzung von Levothyroxin-Natrium aus Tabletten (150 μg), Tablettenmasse 156 mg, Paddle-Apparatur, 100 rpm, […]: 500 ml Phosphatpuffer pH 7,4 und • Fig. 4: Freisetzung von Levothyroxin-Natrium aus Tabletten (200 μg), Tablettenmasse 208 mg, Paddle-Apparatur, 100 rpm, […]: 500 ml Phosphatpuffer pH 7,4.

Take `N[C@@H](Cc1cc(I)c(Oc2cc(I)c(O)c(I)c2)c(I)c1)C(=O)O` [L-Thyroxin]: the “Kinetik (L-Thyroxin-Serumkonzentration, AUC 0 x 24, Cmax, Ctrough)” value in series [1] is reported as “nicht-linearen Kinetik”.

For the compound `N[C@@H](Cc1cc(I)c(Oc2cc(I)c(O)c(I)c2)c(I)c1)C(=O)O` [Levothyroxin-Natrium], the Dosislinearität entry in series [2] is “klare Dosislinearität”. Further, in series [3], the “Freisetzung von Levothyroxin-Natrium aus Tabletten” value was “in gleicher Geschwindigkeit und gleichem Ausmaß freigesetzt”.
